Assay results from patent publication US20100113612A1, “NOVEL USE OF HYDROXYTYROSOL AND OLIVE EXTRACTS/CONCENTRATE CONTAINING IT” (priority 2007, published 2010).

System: Drosophila melanogaster (Oregon wild strain)
Assay: Life extending experiments with Drosophila (lifespan study)
Assay type: in vivo
Details: for Mean Lifespan: from age of 15 days on
Description: Drosophila melanogaster (Oregon wild strain) were used for lifespan study. Flies were reared in a light/dark cycle of 12:12 hours at a temperature of 25° C. and 65% relative humidity. Drosophila were fed with a standard medium consisting of 170 g of corn flour, 15 g of agar, 15 g of yeast, 10 ml of 100% propionic acid, 130 g of sucrose, and 2000 ml of water.
One-day-old Drosophila were transferred to plastic vials (25×100 mm) containing 2 ml of the diet medium, which was replaced every 3 days. 10 flies from each gender were kept in one vial. Hydroxytyrosol was provided in the diet to Drosophila from age of 15 days on. The Drosophilae were counted every 3 days until all flies died. Survivals were calculated at the end of the experiments after correcting total loss incurred from handling (Phillips J P, Campbell S D, Michaud D, Charbonneau M, Hilliker A J, Proc Natl Acad Sci USA. 1989, 86(8), 2761-2765: “Null mutation of copper/zinc superoxide dismutase in Drosophila confers hypersensitivity to paraquat and reduced longevity.”). The mean lifespan was calculated according to the method described by Cui X, Dai X G, Li W B, Zhang B L, Fang Y Z in Am. J. Chin. Med. 1999, 27(3-4), 407-413: “Effects of lu-duo-wei capsule on prolonging life span of housefly and Drosophila melanogaster.”

## OCCc1ccc(O)c(O)c1 [Hydroxytyrosol, 3,4-dihydroxyphenylethanol]
1 mg/100 g in the diet
  % Increase of lifespan compared to control: 8.23%
  Mean Lifespan: 75.14 days
5 mg/100 g in the diet
  % Increase of lifespan compared to control: 11.55%
  Mean Lifespan: 77.44 days
10 mg/100 g in the diet
  % Increase of lifespan compared to control: 3.89%
  Mean Lifespan: 72.12 days
20 mg/100 g in the diet
  % Increase of lifespan compared to control: 6.97%
  Mean Lifespan: 74.26 days
50 mg/100 g in the diet
  % Increase of lifespan compared to control: 4.02%
  Mean Lifespan: 72.21 days
Male Drosophila, 5 mg/100 g diet
  lifespan extension (best effect): 11.5%
